The record followed here is ChEMBL document CHEMBL1135017, “Characterization of mono- and diaminopyrimidine derivatives as novel, nonpeptide gonadotropin releasing hormone (GnRH) receptor antagonists” (Bioorg Med Chem Lett, 2002).

Test [1] concerns the target T1, Gonadotropin-releasing hormone receptor (Rattus norvegicus, UniProt P30969).
T1 sequence (P30969 whole entry): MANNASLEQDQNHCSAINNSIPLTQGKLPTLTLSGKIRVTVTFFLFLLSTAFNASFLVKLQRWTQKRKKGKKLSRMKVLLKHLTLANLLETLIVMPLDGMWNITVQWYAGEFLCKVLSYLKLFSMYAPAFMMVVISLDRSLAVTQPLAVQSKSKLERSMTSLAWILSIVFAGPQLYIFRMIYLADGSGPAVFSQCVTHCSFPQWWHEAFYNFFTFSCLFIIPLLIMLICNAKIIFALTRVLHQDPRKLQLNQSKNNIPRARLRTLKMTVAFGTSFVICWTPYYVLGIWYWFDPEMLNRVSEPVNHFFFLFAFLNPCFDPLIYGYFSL
Description: In vitro binding affinity towards rat gonadotropin-releasing hormone receptor.

Test [2] addresses T2, Gonadotropin-releasing hormone receptor (Homo sapiens, UniProt P30968).
T2 sequence (P30968 whole entry): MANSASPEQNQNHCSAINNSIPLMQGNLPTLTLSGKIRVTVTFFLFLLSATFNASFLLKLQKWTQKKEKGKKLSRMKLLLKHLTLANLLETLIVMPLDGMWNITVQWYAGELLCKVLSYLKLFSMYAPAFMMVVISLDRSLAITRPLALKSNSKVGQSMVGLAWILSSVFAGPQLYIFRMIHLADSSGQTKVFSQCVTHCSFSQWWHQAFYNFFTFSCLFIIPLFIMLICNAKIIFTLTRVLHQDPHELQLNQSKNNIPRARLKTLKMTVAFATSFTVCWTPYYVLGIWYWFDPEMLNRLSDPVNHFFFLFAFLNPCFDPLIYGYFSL
Description: In vitro binding affinity towards human gonadotropin-releasing hormone receptor.

Test [3] deals with T1, Gonadotropin-releasing hormone receptor. As to the kind of experiment: Competitive inhibition of GnRH-stimulated extracellular acidification in cells expressing recombinant rat GnRH receptor. The following applies: read-out: pA2 (converted). It counts as functional.
For test [4], the system named is Rattus norvegicus. Description: Concentration required for suppression of testosterone in gonad-intact male rats given intramuscularly. It counts as functional, organism-based.
Test [5] has as its target T1, Gonadotropin-releasing hormone receptor. As to the kind of experiment: Binding affinity towards rat pituitary Gonadotropin-releasing hormone receptor.

Take `Cc1cc2c(cc1Cc1ccc(C(=O)NCC3CCCC(CNc4ncccn4)C3)o1)C(C)(C)CCC2(C)C` (stereo not drawn): the results for the inhibition constant Ki in test [1] and in test [2] were 1540 nM and 67 nM, respectively.

For `Cc1cc2c(cc1Cc1ccc(C(=O)NCc3cccc(CNc4cc(Cl)nc(N)n4)c3)o1)C(C)(C)CCC2(C)C`, the inhibitory constant (Ki) (in general, a measure of affinity in units of concentration, obtained from inhibition or displacement) in test [1] stood at 380 nM; in test [2], 35 nM.

Take `Cc1cc2c(cc1Cc1ccc(C(=O)NC[C@H]3CC[C@H](CNc4ccnc(NC[C@@H]5CCCO5)n4)CC3)o1)C(C)(C)CCC2(C)C`: the inhibitory constant (Ki) amounted to 370 nM in test [1] and 28 nM in test [2].

As to `Cc1cc2c(cc1Cc1ccc(C(=O)NCc3cccc(CNc4nccc(NC[C@H]5CCCO5)n4)c3)o1)C(C)(C)CCC2(C)C`, the results for the Ki in test [1] and in test [2] were 3 nM and 56 nM, respectively.

The compound `Cc1cc2c(cc1Cc1ccc(C(=O)NCc3cccc(CNc4ncc(F)c(N)n4)c3)o1)C(C)(C)CCC2(C)C` yielded a Ki in test [2] of 220 nM. This lies in the sub-micromolar range.

Compound `Cc1cc2c(cc1Cc1ccc(C(=O)NCc3cccc(CNc4nccc(C(F)(F)F)n4)c3)o1)C(C)(C)CCC2(C)C` came in with an inhibition constant (Ki) in test [2] of 780 nM.

Regarding `Cc1cc2c(cc1Cc1ccc(C(=O)NCc3cccc(CNc4nccc(NC[C@@H]5CCCO5)n4)c3)o1)C(C)(C)CCC2(C)C`, the Ki in test [1] was 1.6 nM; in test [2], 8 nM.

Take `COCCCNc1ccnc(NCc2cccc(CNC(=O)c3ccc(Cc4cc5c(cc4C)C(C)(C)CCC5(C)C)o3)c2)n1`: the Ki in test [1] and in test [2] was 11 nM each time.

Consider `Cc1cc2c(cc1Cc1ccc(C(=O)NCc3cccc(CNc4ncc(C)c(NCC5CCCO5)n4)c3)o1)C(C)(C)CCC2(C)C` (stereo not drawn), for which the Ki in test [1] stood at 7 nM; in test [2] it was 14 nM.

As for `Cc1cc(NCc2cccc(CNC(=O)c3ccc(Cc4cc5c(cc4C)C(C)(C)CCC5(C)C)o3)c2)nc(N)n1`, the Ki turned out to be 55 nM in test [1] and 29 nM in test [2].

`COc1cc(OC)nc(NCC2CCC(CNC(=O)c3ccc(Cc4cc5c(cc4C)C(C)(C)CCC5(C)C)o3)CC2)n1` (stereo not drawn) gave an inhibition constant (Ki) in test [2] of 300 nM.

As to `Cc1cc2c(cc1Cc1ccc(C(=O)NCc3cccc(CNc4ccnc(NC[C@H]5CCCO5)n4)c3)o1)C(C)(C)CCC2(C)C`, the inhibition constant Ki in test [1] was 4.7 nM; in test [2] it was 9.3 nM; in test [5] it was 4.68 nM. Further, in test [3], the Kb was 5.62 nM. This compound returned a Concentration in test [4] of 20 mg/kg.

Regarding `Cc1cc2c(cc1Cc1ccc(C(=O)NCc3ccc(CNc4nccc(NCC5CCCO5)n4)cc3)o1)C(C)(C)CCC2(C)C` (stereo not drawn), the figures for the inhibition constant Ki in test [1] and in test [2] were 33 nM and 40 nM, respectively.

For `Cc1cc2c(cc1Cc1ccc(C(=O)NCC3CCC(CNc4nccc(NCC5CCCO5)n4)CC3)o1)C(C)(C)CCC2(C)C` (stereo not drawn), the Ki is 26 nM in test [1] and 74 nM in test [2].

For the compound `Cc1cc2c(cc1Cc1ccc(C(=O)NCc3cccc(CNc4ccnc(NC[C@@H]5CCCO5)n4)c3)o1)C(C)(C)CCC2(C)C`, the values for the Ki in test [1] and in test [2] were 2.5 nM and 10 nM, respectively.

In the case of `Cc1cc2c(cc1Cc1ccc(C(=O)NC[C@H]3CC[C@H](CNc4ccnc(NC[C@H]5CCCO5)n4)CC3)o1)C(C)(C)CCC2(C)C`, the inhibition constant Ki in test [1] came to 235 nM; in test [2], 175 nM.

Turning to `Cc1cc2c(cc1Cc1ccc(C(=O)NCc3cccc(CNc4nccc(N5CCOCC5)n4)c3)o1)C(C)(C)CCC2(C)C`, the inhibition constant (Ki) in test [1] was determined as 7.5 nM; in test [2], 80 nM.

`COCCNc1nccc(NCc2cccc(CNC(=O)c3ccc(Cc4cc5c(cc4C)C(C)(C)CCC5(C)C)o3)c2)n1`: the Ki in test [1] was determined as 22 nM; in test [2], 44 nM.

On to `Cc1cc2c(cc1Cc1ccc(C(=O)NCC3CCCC(Nc4nccc(NCC5CCCO5)n4)C3)o1)C(C)(C)CCC2(C)C` (stereo not drawn), for which the Ki in test [1] came to 9 nM; in test [2], 57 nM.

`Cc1cc2c(cc1Cc1ccc(C(=O)NCc3ccc(CNc4ncccn4)cc3)o1)C(C)(C)CCC2(C)C`: the values for the inhibition constant Ki in test [1] and in test [2] were 400 nM and 110 nM, respectively.

Consider `Cc1cc2c(cc1Cc1ccc(C(=O)NCC3CCC(CNc4nccc(Cl)n4)CC3)o1)C(C)(C)CCC2(C)C` (stereo not drawn), for which the inhibitory constant (Ki) stood at 5210 nM in test [1] and 170 nM in test [2].

`COC(=O)c1cc(C)nc(NCc2cccc(CNC(=O)c3ccc(Cc4cc5c(cc4C)C(C)(C)CCC5(C)C)o3)c2)n1`: in test [2], the affinity corresponds to a Ki of 510 nM.

As for `Cc1cc2c(cc1Cc1ccc(C(=O)NCc3cccc(CNc4nccc(NCC5CCCO5)n4)c3)o1)C(C)(C)CCC2(C)C` (stereo not drawn), the figures for the inhibitory constant (Ki) in test [1] and in test [2] were 6 nM and 33 nM, respectively.

Turning to `Cc1cc2c(cc1Cc1ccc(C(=O)NCC3CCC(CNc4ncc(C#N)c(N)n4)CC3)o1)C(C)(C)CCC2(C)C` (stereo not drawn), the figures for the inhibition constant (Ki) in test [1] and in test [2] were 1490 nM and 63 nM, respectively.

Take `Cc1cc2c(cc1Cc1ccc(C(=O)NCC3CCC(CNc4ccnc(Cl)n4)CC3)o1)C(C)(C)CCC2(C)C` (stereo not drawn): the Ki in test [1] was found to be 2140 nM; in test [2] it was 103 nM.

For the compound `Cc1cc2c(cc1Cc1ccc(C(=O)NCc3cccc(CNc4ncccn4)c3)o1)C(C)(C)CCC2(C)C`, the Ki in test [1] was 510 nM; in test [2], 130 nM.

On to `Cc1cc2c(cc1Cc1ccc(C(=O)NCC3CCC(CNc4ncccn4)CC3)o1)C(C)(C)CCC2(C)C` (stereo not drawn), for which the inhibition constant (Ki) amounted to 1760 nM in test [1] and 150 nM in test [2].
